Patent US10098889B2, “Complexes and salts of dihydropyrimidine derivatives and their application in pharmaceuticals” (SUNSHINE LAKE PHARMA CO., LTD., priority 2015, dated 2018)

Columns and labels:
Format in all cases: physicochemical
[1] = High humidity test (stability study); conditions: 25° C.
Procedure: (§1) High humidity test: an appropriate amount of sample was put in a weighing bottle in the form of a thin layer of ≤5 mm, under a temperature of 25° C. for 10 days. Appearance, impurity and purity were tested respectively at the 5th and 10th day. If the moisture-absorption weight of the sample gains more than 5%, then the sample needs to be retested in the same manner under the conditions of 25° C. and RH75%±5%. If the moisture-absorption weight of the sample gains less than 5%, and other results meets the requirements, it is not necessary to do the experiment any more. (Note: the weighing bottle should be presaturated for one day by putting it into the humidistat (or a dryer containing a saturated solution of potassium nitrate) before high humidity test, then weighing the sample and weighing bottle together, and record the weight.)
(§2) Experimental results of stability study of the compound of (S)-4-(((R)-6-(2-chloro-4-fluorophenyl)-5-(methoxycarbonyl)-2-(thiazol-2-yl)-3,6-dihydropyrimidin-4-yl)methyl)morpholine-3-carboxylic acid amorphous and the complex of (S)-4-(((R)-6-(2-chloro-4-fluorophenyl)-5-(methoxycarbonyl)-2-(thiazol-2-yl)-1,6-dihydropyrimidin-4-yl)methyl)morpholine-3-carboxylic acid and L-tartaric acid and its various salt forms under high temperature, high humidity and illumination conditions are shown in Table 4.

[2] = Illumination test (stability study)
Procedure: (§3) Illumination test: an appropriate amount of sample was put in a weighing bottle in the form of a thin layer of ≤5 mm, under a […] for 13 days. Appearance, impurity and purity of the samples were tested respectively at the 5th and 13th day.
as §2

[3] = High temperature test (stability study)
Procedure: (§4) High temperature test: an appropriate amount of sample was put in a weighing bottle in the form of a thin layer of ≤5 mm, under a temperature of 60° C. for 10 days. Appearance, impurity and purity of the samples were tested respectively at the 5th and 10th day. […] If the sample has no significant change occurred at 60° C., it is not necessary to do the experiment under the condition of 40° C.
as §2

[4] = Stability studies under high temperature, high humidity and illumination conditions (overall assessment); conditions: for Stability under high temperature, high humidity and illumination condition (in words): compared with amorphous compound (I)
Procedure: as §4, §1, §3

[5] = Experimental study of hygroscopicity; conditions: for Weighting percentage of moisture absorption (%): constant humidity
Procedure: A dry glass weighing bottle with a plug was placed in a suitable thermostatic drier at 25° C.±1° C. (ammonium chloride and saturated solution of ammonium sulfate were placed on the bottom) on the day before the experiment, and weighed precisely. The propriate amount of the sample was plated into the weighing bottle, wherein the thickness of the sample typically is about 1 mm, and weighed precisely (m2). The weighing bottle was open and placed with the plug in the above constant temperature and humidity condition for 24 hours. The capped weighing bottle was weighed precisely (m3), and the weight gain percentage was calculated (%).
Test method: according to the Ph. Eur. <5.11>; Ch. P. 2010; II appendix XIX J; Weighting percentage of moisture absorption (%)=(m3−m2)/(m2−m1)×100%
Hygroscopicity characteristics: weighting percentage of moisture absorption
Judgement of Hygroscopicity Result:
(1) Air slaking: absorbing enough water to form liquid
(2) Of quite hygroscopicity: not less than 15%
(3) Of hygroscopicity: less than 15% but not less 2%
(4) Of slight hygroscopicity: less than 2% but not less than 0.2%

Solubility (HPLC) = test: Solubility (HPLC)
Procedure: The solubility disclosed herein was measured by Aglient 1200 high performance liquid chromatograph VWD detector. The chromatographic column model is Waters Xbridge-C18 (4.6×150 mm, […]). The detection wavelength was 250 nm, the flow rate was 1.0 mL/minute, the column temperature was 35° C., the mobile phase was acetonitrile water (v/v=40/60).

[6] = High temperature, 60° C., 5 days
[7] = High temperature, 60° C., 10 days

| SMILES | Appearance ([1]; 5 days) | Purity (%) ([1]; 5 days) | Total impurity (%) ([1]; 5 days) | Appearance ([1]; 10 days) | Purity (%) ([1]; 10 days) | Total impurity (%) ([1]; 10 days) | Appearance ([2]; 5 days) | Purity (%) ([2]; 5 days) | Total impurity (%) ([2]; 5 days) | Appearance ([2]; 13 days) | Purity (%) ([2]; 13 days) | Total impurity (%) ([2]; 13 days) | Appearance ([3]; 0 days) | Purity (%) ([3]; 0 days) | Total impurity (%) ([3]; 0 days) | Appearance [3, 6] | Purity (%) [3, 6] [%] | Total impurity (%) [3, 6] [%] | Appearance [3, 7] | Purity (%) [3, 7] [%] | further results |
| --- | --- | --- | --- | --- | --- | --- | --- | --- | --- | --- | --- | --- | --- | --- | --- | --- | --- | --- | --- | --- | --- |
| Br.COC(=O)C1=C(CN2CCOC[C@H]2C(=O)O)N=C(c2nccs2)N[C@H]1c1ccc(F)cc1Cl [(S)-4-(((R)-6-(2-chloro-4-fluorophenyl)-5-(methoxycarbonyl)-2-(thiazol-2-yl)-1,6-dihydropyrimidin-4-yl)methyl)morpholine-3-carboxylic Acid Hydrobromide] | yellow | 99.68 | 0.32 | yellow | 99.64 | 0.36 | yellow | 97.63 | 2.37 | yellow | 96.06 | 3.94 | yellow | 99.70 | 0.30 | yellow | 99.69 | 0.31 | yellow | 99.63 | Total impurity (%) [3, 7]: 0.37%; Stability under high temperature, high humidity and illumination condition (in words) [4]: better stability |
| COC(=O)C1=C(CN2CCOC[C@H]2C(=O)O)N=C(c2nccs2)N[C@H]1c1ccc(F)cc1Cl.Cl [(S)-4-(((R)-6-(2-chloro-4-fluorophenyl)-5-(methoxycarbonyl)-2-(thiazol-2-yl)-1,6-dihydropyrimidin-4-yl)methyl)morpholine-3-carboxylic Acid Hydrochloride] | yellow | 99.65 | 0.35 | yellow | 99.59 | 0.41 | yellow | 97.59 | 2.41 | yellow | 97.47 | 2.53 | yellow | 99.63 | 0.37 | yellow | 99.63 | 0.37 | yellow | 99.43 | Total impurity (%) [3, 7]: 0.57%; Stability under high temperature, high humidity and illumination condition (in words) [4]: better stability |
| COC(=O)C1=C(CN2CCOC[C@H]2C(=O)O)NC(c2nccs2)=N[C@H]1c1ccc(F)cc1Cl [(S)-4-(((R)-6-(2-chloro-4-fluorophenyl)-5-(methoxycarbonyl)-2-(thiazol-2-yl)-3,6-dihydropyrimidin-4-yl)methyl)morpholine-3-carboxylic Acid] | a yellow | 97.51 | 2.49 | a yellow | 97.42 | 2.58 | a yellow | 93.72 | 6.28 | a yellow | 90.56 | 9.44 | a yellow | 97.54 | 2.46 | a yellow | 96.99 | 3.01 | a yellow | 95.65 | Hygroscopicity (in words) [5]: certain hygroscopicity; Weighting percentage of moisture absorption (%) ([5]; 25° C.±1° C., 24 hours, listed as Compound (I) prepared by Example 1): 1.441%; Weighting percentage of moisture absorption (%) ([5]; 25° C.±1° C., 24 hours, listed as compound (I)): 1.441%; Total impurity (%) [3, 7]: 4.35% |
| COC(=O)C1=C(CN2CCOC[C@H]2C(=O)O)N=C(c2nccs2)N[C@H]1c1ccc(F)cc1Cl.O=C(O)C(O)C(O)C(=O)O [Complex of (S)-4-(((R)-6-(2-chloro-4-fluorophenyl)-5-(methoxycarbonyl)-2-(thiazol-2-yl)-1,6-dihydropyrimidin-4-yl)methyl)morpholine-3-carboxylic Acid and L-tartaric Acid] | yellow | 99.84 | 0.16 | yellow | 99.82 | 0.18 | yellow | 99.86 | 0.14 | yellow | 99.84 | 0.16 | yellow | 99.85 | 0.15 | yellow | 99.83 | 0.17 | yellow | 99.84 | Hygroscopicity (in words) [5]: much smaller; Judgement of hygroscopicity result ([5]; 25° C.±1° C., 24 hours): of no or little hygroscopicity; Weighting percentage of moisture absorption (%) ([5]; 25° C.±1° C., 24 hours, listed as Crystalline form I(A) of the complex of compound (Ia) and L-tartaric acid): 0.029%; Weighting percentage of moisture absorption (%) ([5]; 25° C.±1° C., 24 hours, listed as crystalline form I(A) of the complex of compound (Ia) and L-tartaric acid): 0.029%; Total impurity (%) [3, 7]: 0.16%; oxide impurities ([3]; preparation purity, from Table 4): less than 0.2%; Stability under high temperature, high humidity and illumination condition (in words) [4]: best stability; Change of appearance and purity under high temperature, high humidity and illumination condition ([4]; listed as L-tartaric acid complex having crystalline form I(A)): basically unchanged; Change of appearance and purity under high temperature, high humidity and illumination condition ([4]; listed as complex formed from compound (I) and L-tartaric acid): unchanged substantially; Solubility (in words) (Solubility (HPLC)): good solubility |
